This passage reports MIC results from ChEMBL document CHEMBL2046407, “Synthesis and in vitro antitubercular activity of 4-aryl/alkylsulfonylmethylcoumarins as inhibitors of Mycobacterium tuberculosis” (2012).

SMILES strings stand for the structures. Converted amounts (≈) assume the structure as drawn.

In the test the test system is Mycobacterium tuberculosis. Nature of the test: Antimycobacterial activity against Mycobacterium tuberculosis H37Rv by agar diffusion method. Format: functional.
Consider `CC[C@@H](CO)NCCN[C@@H](CC)CO` [ETHAMBUTOL], for which the MIC (commonly the smallest concentration in the dilution series that meets the test's criterion for growth inhibition) was 1.56 µg/mL (≈ 7.64 µM).

`COc1ccc2c(CS(=O)(=O)c3ccccc3)cc(=O)oc2c1` returned an MIC of 12.5 µg/mL (≈ 37.8 µM).

`COc1ccc2c(CS(=O)(=O)C3CCCCC3)cc(=O)oc2c1`: the MIC came out at 12.5 µg/mL (≈ 37.2 µM).

`COc1ccc2c(CS(=O)(=O)C3CCCCC3)cc(=O)oc2c1OC` showed an MIC of 12.5 µg/mL (≈ 34.1 µM).

`COc1ccc2c(CS(=O)(=O)c3nc4ccccc4o3)cc(=O)oc2c1` gave an MIC of 6.25 µg/mL (≈ 16.8 µM).

Compound `COc1ccc2c(CS(=O)(=O)c3nc4ccccc4[nH]3)cc(=O)oc2c1` had an MIC of 6.25 µg/mL (≈ 16.9 µM).

With `COc1ccc2c(CS(=O)(=O)c3ccc(C)cc3)cc(=O)oc2c1`, it took 12.5 µg/mL (≈ 36.3 µM) to inhibit growth (MIC).

The compound `NC(=O)c1cnccn1` [PYRAZINAMIDE] registered an MIC of 6.25 µg/mL (≈ 50.8 µM).

Consider `COc1ccc2c(CS(=O)(=O)c3ccccc3)cc(=O)oc2c1OC`, for which the MIC worked out at 6.25 µg/mL (≈ 17.3 µM).

In turn, `O=c1cc(CS(=O)(=O)c2ccccc2)c2ccccc2o1` came in with an MIC of 6.25 µg/mL (≈ 20.8 µM).

The compound `O=c1cc(CS(=O)(=O)C2CCCCC2)c2ccccc2o1` gave an MIC of 6.25 µg/mL (≈ 20.4 µM).

In turn, `O=c1cc(CS(=O)(=O)c2nc3ccccc3[nH]2)c2ccccc2o1` showed an MIC of 1.61 µg/mL (≈ 4.73 µM).

For `COc1ccc2c(CS(=O)(=O)c3nc4ccccc4o3)cc(=O)oc2c1OC`, the minimal inhibitory concentration (MIC) amounted to 0.78 µg/mL (≈ 1.94 µM).

Compound `O=c1cc(CS(=O)(=O)c2ccc(Cl)cc2)c2ccccc2o1` displayed an MIC of 12.5 µg/mL (≈ 37.3 µM).

Consider `COc1ccc2c(CS(=O)(=O)c3nc4ccccc4[nH]3)cc(=O)oc2c1OC`, for which inhibition of growth (MIC) required 6.25 µg/mL (≈ 15.6 µM).

`COc1ccc2c(CS(=O)(=O)c3ccc(Cl)cc3)cc(=O)oc2c1` showed a minimal inhibitory concentration (MIC) of 6.25 µg/mL (≈ 17.1 µM).

As to `COc1ccc2c(CS(=O)(=O)c3ccc(C)cc3)cc(=O)oc2c1OC`, the MIC was determined as 3.13 µg/mL (≈ 8.36 µM).

As for `COc1ccc2c(CS(=O)(=O)c3ccc(Cl)cc3)cc(=O)oc2c1OC`, the MIC came out at 1.56 µg/mL (≈ 3.95 µM).

For `Cc1ccc(S(=O)(=O)Cc2cc(=O)oc3ccccc23)cc1`, the MIC amounted to 12.5 µg/mL (≈ 39.8 µM).

`O=c1cc(CS(=O)(=O)c2nc3ccccc3o2)c2ccccc2o1` registered an MIC of 7.5 µg/mL (≈ 22 µM).
